Measurements taken from PubChem BioAssay AID248 (DTP/NCI, 2004).
“And” between values parts separate entries of the source, which are not always exact repeats. Equal entries are not always repeated. Inconclusive results and toxic doses are left out.

Tested on: L1210 leukemia ip in BDF1 mice, survival T/C
Assay: NCI In Vivo Anticancer Drug Screen. Data for tumor model L1210 Leukemia (intraperitoneal) in B6D2F1 (BDF1) mice
Conditions: endpoint: mean survival time, higher = longer survival
Method in brief: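 In this screen, tumor-bearing mice given compound are compared to those given vehicle, and their survival values are reported as a treated-to-control quotient.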

[1] = dose: 100.0 mg/kg/injection, schedule: Q01DX001 (ip), vehicle: carboxymethylcellulose (CMC)
[2] = dose: 200.0 mg/kg/injection, schedule: Q01DX001 (ip), vehicle: carboxymethylcellulose (CMC)
[3] = dose: 400.0 mg/kg/injection, schedule: Q01DX001 (ip), vehicle: carboxymethylcellulose (CMC)
[4] = dose: 100.0 mg/kg/injection, schedule: Q04DX003 (ip), vehicle: saline
[5] = dose: 200.0 mg/kg/injection, schedule: Q04DX003 (ip), vehicle: saline
[6] = dose: 100.0 mg/kg/injection, schedule: Q01DX001 (ip), vehicle: saline
[7] = dose: 75.0 mg/kg/injection, schedule: Q01DX001 (ip), vehicle: saline
[8] = dose: 150.0 mg/kg/injection, schedule: Q01DX001 (ip), vehicle: saline
[9] = dose: 100.0 mg/kg/injection, schedule: Q01DX009 (ip), vehicle: saline
[10] = dose: 400.0 mg/kg/injection, schedule: Q01DX001 (ip), vehicle: saline
[11] = dose: 200.0 mg/kg/injection, schedule: Q01DX001 (ip), vehicle: saline
[12] = dose: 300.0 mg/kg/injection, schedule: Q01DX001 (ip), vehicle: saline

O=NN(CCCl)C(=O)N[C@H]1CCCC[C@H]1Cl
T/C (dose: 12.0 mg/kg/injection, schedule: Q01DX001 (ip), vehicle: carboxymethylcellulose (CMC)): 108 % of control | T/C (dose: 16.0 mg/kg/injection, schedule: Q01DX001 (ip), vehicle: carboxymethylcellulose (CMC)): 175 % of control | T/C (dose: 31.0 mg/kg/injection, schedule: Q01DX001 (ip), vehicle: carboxymethylcellulose (CMC)): 180 % of control | T/C (dose: 36.0 mg/kg/injection, schedule: Q01DX001 (ip), vehicle: carboxymethylcellulose (CMC)): 177 % of control | T/C (dose: 40.0 mg/kg/injection, schedule: Q01DX001 (ip), vehicle: carboxymethylcellulose (CMC)): 168 % of control | T/C (dose: 54.0 mg/kg/injection, schedule: Q01DX001 (ip), vehicle: carboxymethylcellulose (CMC)): 289 % of control | T/C (dose: 62.0 mg/kg/injection, schedule: Q01DX001 (ip), vehicle: carboxymethylcellulose (CMC)): 218 % of control and 304 % of control | T/C (dose: 72.0 mg/kg/injection, schedule: Q01DX001 (ip), vehicle: carboxymethylcellulose (CMC)): 289 % of control | T/C (dose: 90.0 mg/kg/injection, schedule: Q01DX001 (ip), vehicle: carboxymethylcellulose (CMC)): 295 % of control | T/C (dose: 93.0 mg/kg/injection, schedule: Q01DX001 (ip), vehicle: carboxymethylcellulose (CMC)): 177 % of control | T/C (dose: 108.0 mg/kg/injection, schedule: Q01DX001 (ip), vehicle: carboxymethylcellulose (CMC)): 307 % of control | T/C (dose: 125.0 mg/kg/injection, schedule: Q01DX001 (ip), vehicle: carboxymethylcellulose (CMC)): 175 % of control | T/C (dose: 135.0 mg/kg/injection, schedule: Q01DX001 (ip), vehicle: carboxymethylcellulose (CMC)): 306 % of control | T/C (dose: 187.0 mg/kg/injection, schedule: Q01DX001 (ip), vehicle: carboxymethylcellulose (CMC)): 107 % of control | T/C (dose: 207.0 mg/kg/injection, schedule: Q01DX001 (ip), vehicle: carboxymethylcellulose (CMC)): 242 % of control

O=C(OC(C1COCO1)C(O)C1COCO1)c1ccccc1 (stereo unspecified)
T/C (dose: 100.0 mg/kg/injection, schedule: Q01DX001 (ip), vehicle: Klucel (hydroxypropylcellulose) (HPC)): 96 % of control | T/C (dose: 200.0 mg/kg/injection, schedule: Q01DX001 (ip), vehicle: Klucel (hydroxypropylcellulose) (HPC)): 105 % of control | T/C (dose: 400.0 mg/kg/injection, schedule: Q01DX001 (ip), vehicle: Klucel (hydroxypropylcellulose) (HPC)): 107 % of control

CC(=O)Nc1ccc(OC(=O)Nc2c(C)cccc2C)cc1
T/C (dose: 100.0 mg/kg/injection, schedule: Q04DX003 (ip), vehicle: Klucel (hydroxypropylcellulose) (HPC)): 100 % of control | T/C (dose: 200.0 mg/kg/injection, schedule: Q04DX003 (ip), vehicle: Klucel (hydroxypropylcellulose) (HPC)): 91 % of control | T/C (dose: 400.0 mg/kg/injection, schedule: Q04DX003 (ip), vehicle: Klucel (hydroxypropylcellulose) (HPC)): 91 % of control

CCC/C(=C/c1cc2ccccc2c2ccccc12)[N+](=O)[O-]
T/C [1]: 97 % of control | T/C [2]: 111 % of control | T/C [3]: 106 % of control

O=[N+]([O-])c1ccc(N/N=C(/Cl)c2ccccc2)cc1
T/C (dose: 50.0 mg/kg/injection, schedule: Q04DX003 (ip), vehicle: saline): 101 % of control | T/C [4]: 98 % of control | T/C [5]: 96 % of control

Cc1nc2ccccc2[nH]c1=O
T/C (dose: 75.0 mg/kg/injection, schedule: Q04DX003 (ip), vehicle: saline): 96 % of control | T/C (dose: 100.0 mg/kg/injection, schedule: Q01DX001 (ip), vehicle: other): 97 % of control | T/C (dose: 150.0 mg/kg/injection, schedule: Q04DX003 (ip), vehicle: saline): 100 % of control | T/C (dose: 200.0 mg/kg/injection, schedule: Q01DX001 (ip), vehicle: other): 100 % of control | T/C (dose: 300.0 mg/kg/injection, schedule: Q04DX003 (ip), vehicle: saline): 96 % of control | T/C (dose: 400.0 mg/kg/injection, schedule: Q01DX001 (ip), vehicle: other): 93 % of control

COc1ccc(C2(OC)Oc3cc(OC)ccc3C(=O)C2(O)OC)cc1 (stereo unspecified)
T/C (dose: 50.0 mg/kg/injection, schedule: Q01DX001 (ip), vehicle: saline): 98 % of control | T/C [6]: 104 % of control

COc1nn(C)c(=O)c2cccnc12
T/C [7]: 96 % of control | T/C [8]: 98 % of control

CC(C)=C1C2C=CC1C(C(=O)N(C)C)C2C(=O)N(C)C (stereo unspecified)
T/C [9]: 96 % of control | T/C [4]: 113 % of control | T/C (dose: 200.0 mg/kg/injection, schedule: Q01DX009 (ip), vehicle: saline): 98 % of control | T/C [5]: 108 % of control | T/C (dose: 400.0 mg/kg/injection, schedule: Q01DX009 (ip), vehicle: saline): 104 % of control | T/C (dose: 400.0 mg/kg/injection, schedule: Q04DX003 (ip), vehicle: saline): 100 % of control

COC(=O)C1=CO[C@@H](C)[C@@H]2Cn3ccc4c5ccccc5nc-4c3C[C@H]12
T/C [6]: 109 % of control | T/C [10]: 95 % of control

CNC(=O)O/N=C\C=N\OC(=O)NC
T/C [6]: 93 % of control | T/C [11]: 98 % of control | T/C [10]: 95 % of control

CN(C(=O)CCCCl)c1cc([N+](=O)[O-])ccc1OCc1ccccc1
T/C [7]: 103 % of control | T/C [8]: 104 % of control | T/C [12]: 103 % of control

Cc1ccc(NC(=O)COc2ccc([N+](=O)[O-])cc2Cl)cc1S(=O)(=O)F
T/C (dose: 87.5 mg/kg/injection, schedule: Q04DX003 (ip), vehicle: gum acacia): 97 % of control | T/C (dose: 175.0 mg/kg/injection, schedule: Q04DX003 (ip), vehicle: gum acacia): 100 % of control | T/C (dose: 350.0 mg/kg/injection, schedule: Q04DX003 (ip), vehicle: gum acacia): 94 % of control

O=C1OC(=O)c2cscc21
T/C (dose: 100.0 mg/kg/injection, schedule: Q04DX003 (ip), vehicle: saline with Tween-80): 88 % of control | T/C (dose: 200.0 mg/kg/injection, schedule: Q04DX003 (ip), vehicle: saline with Tween-80): 94 % of control

O=C(CBr)Nc1ccccc1S(=O)(=O)F
T/C (dose: 4.68 mg/kg/injection, schedule: Q01DX009 (ip), vehicle: carboxymethylcellulose (CMC)): 91 % of control | T/C (dose: 9.37 mg/kg/injection, schedule: Q01DX009 (ip), vehicle: carboxymethylcellulose (CMC)): 91 % of control | T/C (dose: 18.75 mg/kg/injection, schedule: Q01DX009 (ip), vehicle: carboxymethylcellulose (CMC)): 94 % of control | T/C (dose: 18.75 mg/kg/injection, schedule: Q04DX003 (ip), vehicle: carboxymethylcellulose (CMC)): 102 % of control | T/C (dose: 37.5 mg/kg/injection, schedule: Q04DX003 (ip), vehicle: carboxymethylcellulose (CMC)): 102 % of control | T/C (dose: 75.0 mg/kg/injection, schedule: Q01DX001 (ip), vehicle: carboxymethylcellulose (CMC)): 96 % of control

CC1C2CCC1(C)C(C=O)C2 (stereo unspecified)
T/C [7]: 93 % of control | T/C [8]: 88 % of control | T/C [12]: 88 % of control

CN(C=O)c1ccc(C(=O)O)cc1
T/C [1]: 123 % of control | T/C [2]: 96 % of control | T/C [3]: 94 % of control

OCCC=C(c1ccccc1)c1ccccc1
T/C (dose: 50.0 mg/kg/injection, schedule: Q01DX009 (ip), vehicle: saline with Tween-80): 107 % of control | T/C (dose: 100.0 mg/kg/injection, schedule: Q01DX009 (ip), vehicle: saline with Tween-80): 100 % of control | T/C (dose: 200.0 mg/kg/injection, schedule: Q01DX009 (ip), vehicle: saline with Tween-80): 104 % of control

Nc1ccc(Cl)nn1
T/C (dose: 25.0 mg/kg/injection, schedule: Q04DX002 (ip), vehicle: Klucel (hydroxypropylcellulose) (HPC)): 97 % of control | T/C (dose: 50.0 mg/kg/injection, schedule: Q04DX002 (ip), vehicle: Klucel (hydroxypropylcellulose) (HPC)): 97 % of control | T/C (dose: 100.0 mg/kg/injection, schedule: Q04DX002 (ip), vehicle: Klucel (hydroxypropylcellulose) (HPC)): 100 % of control

Cc1ccc(Cl)c(OCc2cc(=O)[nH]c(=O)[nH]2)c1
T/C (dose: 10.0 mg/kg/injection, schedule: Q04DX003 (ip), vehicle: saline with Tween-80): 101 % of control | T/C (dose: 20.0 mg/kg/injection, schedule: Q04DX003 (ip), vehicle: saline with Tween-80): 92 % of control | T/C (dose: 40.0 mg/kg/injection, schedule: Q04DX003 (ip), vehicle: saline with Tween-80): 95 % of control

CCCCCC[Si](Br)(CCCCCC)CCCCCC
T/C (dose: 25.0 mg/kg/injection, schedule: Q01DX009 (ip), vehicle: saline): 102 % of control | T/C (dose: 50.0 mg/kg/injection, schedule: Q01DX009 (ip), vehicle: saline): 102 % of control | T/C [6]: 98 % of control | T/C [9]: 98 % of control | T/C [11]: 93 % of control | T/C [10]: 96 % of control

O=C(/C=C/c1ccc(O)cc1)c1ccc(Cl)cc1
T/C [6]: 98 % of control | T/C [11]: 87 % of control | T/C [10]: 90 % of control
